Entries after “also recorded” stand apart in the source; their conditions may differ. One block for each compound: values may come before it.
Experiments:
[1] = system: Alcaligenes piechaudii K4; test: Growth using N-protected amino acids as the sole N source; assay type: cell-based; details: minimal medium, fructose 5 g/l as C source, N source 5 g/l, 30° C., 120 rpm
Method: (§1) Arthrobacter sp. HSZ5, Alcaligenes xylosoxidans ssp. denitrificans HSZ17, Agrobacterium/Rhizobium HSZ30, Bacillus simplex K2, Alcaligenes piechaudii K4 and Pseudomonas putida […] were grown (30° C., 120 rpm) in the medium described in Table 1 using fructose (5 g/l) as the C source. As the sole N source (5 g/l), in each case various N-protected amino acids were added. On reaching a cell density of OD650>0.5, the batch was assessed as positive.

[2] = system: Arthrobacter sp. HSZ5; test: as above; assay type: cell-based; details: minimal medium, fructose 5 g/l as C source, N source 5 g/l, 30° C., 120 rpm
Method: as §1

[3] = system: N-acyl-L-proline acylase of Arthrobacter sp. HSZ5; test: Effect of product inhibition on the activity of the N-acyl-L-proline acylase; assay type: cell-based; details: for Inhibition of the enzymatic activity of N-acyl-L-proline acylase: cells pre-incubated 30 minutes (30° C., pH 6.4) with product, then 30° C., pH 6.5, 50 g/l N-Z-L-proline; for Manner of inhibition: from dependence of inhibition on concentration
Method: Arthrobacter sp. HSZ5 was grown (30° C., 120 rpm) in the medium described in Table 1 using fructose (5 […]) as the C or N source. After reaching the desired cell density, the cells were harvested by centrifugation, washed in sodium chloride solution (0.9%) and finally also resuspended in the latter. […] As the 100% value, the result of the batch at pH=7.0 was employed. d) Effect of product inhibition on the activity of the N-acyl-L-proline acylase of Arthrobacter sp. HSZ5 cells having N-acyl-L-proline acylase activity were prepared as described under 9a). […] As the 100% value, the results of the batch was employed here which had been incubated without addition of one of the products.

[4] = system: Arthrobacter sp. HSZ5; test: Enzymatic hydrolysis of N-Z-DL-proline by resting cells; assay type: cell-based; details: after 60 minutes; N-Z-DL-proline 50 g/l, OD650=30, 30° C., pH 7.0, HPLC
Method: a) Arthrobacter sp. […] The cells were harvested and washed as described previously. The resting cells (OD650=30) were incubated at 30° C. with N-Z-DL-proline (50 g/l) under pH stasis (pH 7.0) and with stirring.

[5] = system: Pseudomonas putida K32; test: Growth using N-protected amino acids as the sole N source; assay type: cell-based; details: minimal medium, fructose 5 g/l as C source, N source 5 g/l, 30° C., 120 rpm
Method: as §1

[6] = system: Agrobacterium/Rhizobium HSZ30; test: as above; assay type: cell-based; details: minimal medium, fructose 5 g/l as C source, N source 5 g/l, 30° C., 120 rpm
Method: as §1

[7] = system: Bacillus simplex K2; test: as above; assay type: cell-based; details: minimal medium, fructose 5 g/l as C source, N source 5 g/l, 30° C., 120 rpm
Method: as §1

[8] = system: N-acyl-L-proline acylase; test: Substrate specificity of N-acyl-L-proline acylase; assay type: biochemical, Arthrobacter sp. HSZ5
Text: The enzymes according to the invention, the N-acyl-L-proline acylases, can be obtained, for example, by customary expert disruption of the described microorganism cells, preferably the enzymes are obtained from Arthrobacter sp. HSZ5 (DSM 10329). For this, for example, the ultrasound, French press or lysozyme method can be used. The enzymes are characterized by the following properties:
N-acyl-L-proline acylase, characterized by the following properties:

[9] = system: Alcaligenes xylosoxidans ssp. denitrificans HSZ17; test: Growth using N-protected amino acids as the sole N source; assay type: cell-based; details: minimal medium, fructose 5 g/l as C source, N source 5 g/l, 30° C., 120 rpm
Method: as §1

[10] = system: N-acyl-L-proline acylase; test: Inducers of N-acyl-L-proline acylase, resting cells tested against N-Z-L-proline and N-Z-D-proline; assay type: cell-based, Arthrobacter sp. HSZ5; details: for Induction of the enzymatic activity (N-acyl-L-proline acylase): 1 g/l added to minimal medium with fructose 5 g/l and L-glutamate 2 g/l, proline detected by HPLC
Method: Arthrobacter sp. HSZ5 was grown in minimal medium (Example 1) using fructose (5 g/l) as the C source and L-glutamate (2 g/l) as the N source.

[11] = system: Arthrobacter sp. HSZ5; test: Biotransformation of N-Z-DL-proline in 450 l fermenter; assay type: cell-based; details: pH 7.5-8.5, 30° C.
Text: d) Arthrobacter sp. […] The enzymatic activity was then induced by addition of 4 kg of 50% (w/w) N-Z-DL-proline solution. […] The cells were removed by ultracentrifugation from the 320 kg of culture finally obtained and an aliquot (1444 g) of the cell-free fermentation broth was worked up as described under 6a).

SMILES: O=C(O)[C@@H]1CCCN1C(=O)Cc1ccccc1 [N-phenylacetyl-L-proline]
- Growth using N-protected amino acid as the sole N source [1]: + (On reaching a cell density of OD650>0.5, the batch was assessed as positive)
- Growth using N-protected amino acid as the sole N source [2]: + (On reaching a cell density of OD650>0.5, the batch was assessed as positive)

- Inhibition of the enzymatic activity of N-acyl-L-proline acylase ([3]; listed as N-benzyloxycarbonyl-D-proline): inhibitory action
- Manner of inhibition [3]: competitive inhibitor
SMILES: O=C(O)[C@H]1CCCN1C(=O)OCc1ccccc1 [N-Z-D-proline, N-benzyloxycarbonyl-D-proline]
- Inhibition of the enzymatic activity of N-acyl-L-proline acylase [3]: drastic lowering of the enzyme activity with increasing concentration
- Hydrolysis by resting cells [4]: unchanged

SMILES: CN(CC(=O)O)C(=O)OCc1ccccc1 [N-Z-sarcosine]
- Growth using N-protected amino acid as the sole N source [2]: + (On reaching a cell density of OD650>0.5, the batch was assessed as positive)

- Substrate specificity (hydrolysis by the enzyme) [8]: hydrolysed
SMILES: C[C@H](NC(=O)OCc1ccccc1)C(=O)O [N-Z-L-alanine, N-benzyloxycarbonyl-L-alanine]
- Growth using N-protected amino acid as the sole N source [5]: + (On reaching a cell density of OD650>0.5, the batch was assessed as positive)
- Growth using N-protected amino acid as the sole N source [6]: + (On reaching a cell density of OD650>0.5, the batch was assessed as positive)
- Growth using N-protected amino acid as the sole N source [7]: + (On reaching a cell density of OD650>0.5, the batch was assessed as positive)
- Growth using N-protected amino acid as the sole N source [2]: + (On reaching a cell density of OD650>0.5, the batch was assessed as positive)

SMILES: CC(=O)N1CCC[C@H]1C(=O)O [N-acetyl-L-proline]
- Growth using N-protected amino acid as the sole N source [9]: + (On reaching a cell density of OD650>0.5, the batch was assessed as positive)
- Growth using N-protected amino acid as the sole N source [5]: + (On reaching a cell density of OD650>0.5, the batch was assessed as positive)
- Growth using N-protected amino acid as the sole N source [6]: + (On reaching a cell density of OD650>0.5, the batch was assessed as positive)
- Growth using N-protected amino acid as the sole N source [2]: + (On reaching a cell density of OD650>0.5, the batch was assessed as positive)

SMILES: O=C(O)[C@@H]1CCCN1 [L-proline]
- Inhibition of the enzymatic activity of N-acyl-L-proline acylase [3]: no inhibition of the enzymatic activity at all even in high concentration

SMILES: O=C(N[C@@H](CO)C(=O)O)OCc1ccccc1 [N-Z-L-serine]
- Growth using N-protected amino acid as the sole N source [5]: + (On reaching a cell density of OD650>0.5, the batch was assessed as positive)
- Growth using N-protected amino acid as the sole N source [2]: + (On reaching a cell density of OD650>0.5, the batch was assessed as positive)

SMILES: O=C(O)[C@@H]1CCC(=O)N1C(=O)OCc1ccccc1 [N-Z-L-pyroglutamate, N-benzyloxycarbonyl-L-pyroglutamate]
- Growth using N-protected amino acid as the sole N source [9]: + (On reaching a cell density of OD650>0.5, the batch was assessed as positive)
- Growth using N-protected amino acid as the sole N source [5]: + (On reaching a cell density of OD650>0.5, the batch was assessed as positive)
- Growth using N-protected amino acid as the sole N source [1]: + (On reaching a cell density of OD650>0.5, the batch was assessed as positive)
- Growth using N-protected amino acid as the sole N source [6]: + (On reaching a cell density of OD650>0.5, the batch was assessed as positive)
- Growth using N-protected amino acid as the sole N source [7]: + (On reaching a cell density of OD650>0.5, the batch was assessed as positive)
- Growth using N-protected amino acid as the sole N source [2]: + (On reaching a cell density of OD650>0.5, the batch was assessed as positive)

SMILES: O=C(O)[C@@H]1CCCN1C(=O)c1ccccc1 [N-benzoyl-L-proline]
- Growth using N-protected amino acid as the sole N source [5]: + (On reaching a cell density of OD650>0.5, the batch was assessed as positive)
- Growth using N-protected amino acid as the sole N source [2]: + (On reaching a cell density of OD650>0.5, the batch was assessed as positive)

SMILES: CC(C)COC(=O)N1CCC[C@H]1C(=O)O [N-isobutoxycarbonyl-L-proline]
- Growth using N-protected amino acid as the sole N source [5]: + (On reaching a cell density of OD650>0.5, the batch was assessed as positive)
- Growth using N-protected amino acid as the sole N source [1]: + (On reaching a cell density of OD650>0.5, the batch was assessed as positive)
- Growth using N-protected amino acid as the sole N source [2]: + (On reaching a cell density of OD650>0.5, the batch was assessed as positive)

- Manner of inhibition [3]: non-competitive
SMILES: OCc1ccccc1 [benzyl alcohol]
- Inhibition of the enzymatic activity of N-acyl-L-proline acylase [3]: drastic lowering of the enzyme activity with increasing concentration; also recorded: inhibitory action

SMILES: O=C(O)C1CCCN1C(=O)OCc1ccccc1 (racemic) [N-Z-DL-proline]
- Induction of the enzymatic activity (N-acyl-L-proline acylase) [10]: induced the desired enzymatic activity

SMILES: O=C(O)CCC(=O)N1CCC[C@H]1C(=O)O [N-succinyl-L-proline]
- Growth using N-protected amino acid as the sole N source [5]: + (On reaching a cell density of OD650>0.5, the batch was assessed as positive)

SMILES: O=C(O)[C@@H]1CCCN1C(=O)OCc1ccccc1 [N-Z-L-proline, N-benzyloxycarbonyl-L-proline]
- Growth using N-protected amino acid as the sole N source [9]: + (On reaching a cell density of OD650>0.5, the batch was assessed as positive)
- Growth using N-protected amino acid as the sole N source [5]: + (On reaching a cell density of OD650>0.5, the batch was assessed as positive)
- Growth using N-protected amino acid as the sole N source [1]: + (On reaching a cell density of OD650>0.5, the batch was assessed as positive)
- Growth using N-protected amino acid as the sole N source [6]: + (On reaching a cell density of OD650>0.5, the batch was assessed as positive)
- Growth using N-protected amino acid as the sole N source [7]: + (On reaching a cell density of OD650>0.5, the batch was assessed as positive)
- Growth using N-protected amino acid as the sole N source [2]: + (On reaching a cell density of OD650>0.5, the batch was assessed as positive)
- Induction of the enzymatic activity (N-acyl-L-proline acylase) [10]: induced the desired enzymatic activity
- Acceptance as substrate by induced resting cells ([10]; resting cells, tested against N-Z-L-proline and N-Z-D-proline): accepted as the substrate
- Maximal rate of hydrolysis [11]: about 12 g of N-Z-L-proline hydrolysed/l×h
- Hydrolysis by resting cells [4]: almost completely hydrolysed

From patent US20020037559A1, “PROCESS FOR PRODUCING N-PROTECTED D-PROLINE DERIVATIVES” (priority 1996, published 2002)
